Legend:
[1] = MTT assay, RAW264.7 cell viability; format: cell-based; details: mouse; RAW 264.7 cells; cytotoxic concentration that produces 50% cell death
Protocol: (§1) The compounds 1 to 24 of the present invention is tested by three pharmacological activity tests as follows: (1) MTT assay to test the RAW264.7 cell (murine monocyte/macrophage cell line) viability; (2) Tartrate-resistant acid phosphatase (TRAP) staining and activity analysis to investigate the cell differentiation activity; (3) The activity test of bone resorption (Pit formation assay).
(§2) The synthesized difunisal derivatives, compounds 1 to 24, were pharmacologically tested to be identified the relationship between their structure and activity. Cell viability was measured by MTT assay in RAW 264.7 cells upon treatment with compounds at 5 μM. CC50 is the cytotoxic concentration that produces 50% (CC50) cell death. […] The multinucleated osteoclasts could be formed by RANKL-induced macrophage cell line […]. RAW 264.7 cells were cultured with the indicated in the presence of drug and RANKL (100 ng/mL). Numbers of TRAP-positive (TRAP^+) multinucleated cells (MNCs) were counted in the presence of RANKL to identify the relationship between osteoclast and bone formation. […] The compound 16 performed the best inhibitory effect in the TRAP staining. The compound 16 was a derivate from compound 4 and its structure was related to compound 4. Therefore, the compound 4 and 16 were performed by TRAP assay to evaluate the effect on osteoclast differentiation by different concentration of compounds. […] According to above result, it can be speculated that: (1) Due to different substitutes on benzene ring of difunisal, the inhibitory ability of RANKL-induced osteoclast differentiation would be different. (2) Due to the electron-withdrawing group substitutes of R1 and R4 on benzene ring, or electron-withdrawing group substitutes derivatives of R2 on benzene ring, such as compound 4. (R1═F and R4═F), compound 6 (R2═CF3), compound 9 (R2═CN) and compound 16 (R1═F and R4═F), (3) compound 4 (R1═F and R4═F) and compound 6 (R2═CF3), a cyclic derivate compound 16 (R1═F and R4═F) and compound 18 (R2═CF3), the inhibitory activity would be stronger.

[2] = tested on: RAW 264.7 cells; assay: MTT assay, RAW264.7 cell viability; format: cell-based; details: MTT assay, compounds at 5 μM
Protocol: as §1, §2

[3] = tested on: RANKL-induced osteoclast differentiation in RAW 264.7 cells; assay: TRAP staining, RANKL-induced osteoclast differentiation (TRAP+ multinucleated cells); format: cell-based, murine; details: Mus musculus, RAW264.7; RAW 264.7 cells, RANKL (100 ng/mL), compounds at 5 μM, TRAP-positive multinucleated cells; read-out: Inhibition of MNCs (%)
Protocol: as §1, §2

[4] = tested on: NO production; assay: Measurement of NO concentrations (Griess reaction) in porcine chondrocytes; format: cell-based; details: Sus scrofa, Chondrocyte, nitrite in supernatants, read-out: anti-inflammatory IC50 (μM) on NO production
Protocol: Porcine cartilage was obtained from the hind leg joints of pigs. The synthesis of chondrocytes from cartilage was performed according to our previous report. After enzymatic digestion of articular cartilage with 2 mg/mL protease in serum-free Dulbecco's modified Eagle's medium (DMEM)/antibiotics, the specimens were then digested overnight with 2 mg/mL collagenase I and 0.9 mg/ml, hyaluronidase in DMEM containing 10% fetal bovine serum (FBS). The cells were collected, passed through a cell strainer (Becton Dickinson, Mountain View, Calif., USA), and cultured in DMEM containing 10% […] and antibiotics for 3-4 days before use.
The measurement of NO release was reflected by determination of its stable end product, nitrite, in supernatants. The Griess reaction was performed with the concentrations of nitrite measured by a spectrophotometer. In brief, an aliquot (100 μL) of culture supernatant was incubated with 50 μL of 0.1% sulfanilamide in 5% phosphoric acid and 50 μL of 0.1% N-1-naphthyl-ethylenediamine dihydrochloride. After 10 min of incubation at room temperature, the absorbance was measured at 550 nm wavelength with a plate reader (recall, Grodig, […]).

Row | SMILES | CC50 [1] [µM] | Cell viability (%) [2] [%] | inhibition at 5 µM [3] [%] | IC50 [4] [µM]
1 | O=C(O)c1cc(-c2ccc(F)cc2F)ccc1O [Diflunisal, reference compound] | > 20 | 103.82 ± 1.78 | 23.9 ± 1.88 | > 10
2 | COc1ccc(NC(=O)c2cc(-c3ccc(F)cc3F)ccc2O)cc1OC [compound 11, N-(3,4-dimethoxyphenyl)-2′,4′-difluoro-4-hydroxy-[1,1′-biphenyl]-3-carboxamid] | > 20 | 98.87 ± 2.06 | 51.9 ± 6.5 | 1.5
3 | O=c1oc2ccc(-c3ccc(F)cc3F)cc2c(=O)n1-c1ccc(C(F)(F)F)cc1 [compound 19, 6-(2,4-difluorophenyl)-3-(4-(trifluoromethyl)phenyl)-2H-benzo[e][1,3]oxazine-2,4(3H)-dione] | 15.5 | 103.01 ± 2.51 | 16.9 ± 4.61 | 0.75
4 | O=C(Nc1cccc(C(F)(F)F)c1)c1cc(-c2ccc(F)cc2F)ccc1O [compound 6, 2′,4′-difluoro-4-hydroxy-N-(3-(trifluoromethyl)phenyl)[1,1′-biphenyl]-3-carboxamide] | 14.3 | 96.73 ± 1.18 | 59.2 ± 2.28 | 0.71
5 | N#Cc1ccc(-n2c(=O)oc3ccc(-c4ccc(F)cc4F)cc3c2=O)cc1 [compound 22, 4-(6-(2,4-difluorophenyl)-2,4-dioxo-2H-benzo[e][1,3]oxazin-3(4H)-yl)benzonitrile] | > 20 | 108.33 ± 1.10 | 29.4 ± 5.48 | 0.55
6 | C#Cc1cccc(-n2c(=O)oc3ccc(-c4ccc(F)cc4F)cc3c2=O)c1 [compound 20, 6-(2,4-difluorophenyl)-3-(3-ethynylphenyl)-2H-benzo[e][1,3]oxazine-2,4(3H)-dione] | 11 | 88.38 ± 4.65 | 57.5 ± 3.25 | 1.63
7 | COc1cccc(NC(=O)c2cc(-c3ccc(F)cc3F)ccc2O)c1 [compound 12, 2′,4′-difluoro-4-hydroxy-N-(3-methoxyphenyl)-[1,1′-biphenyl]-3-carboxamide] | > 20 | 104.90 ± 2.62 | 40.8 ± 2.65 | 2.24
8 | O=C(Nc1ccc(Cl)cc1F)c1cc(-c2ccc(F)cc2F)ccc1O [compound 1, N-(4-chloro-2-fluorophenyl)-2′,4′-difluoro-4-hydroxybiphenyl-3-carboxamide] | 17.9 | 77.54 ± 1.17 | 44.3 ± 7.93 | 7.94
9 | COc1cccc(-n2c(=O)oc3ccc(-c4ccc(F)cc4F)cc3c2=O)c1 [compound 24, 6-(2,4-difluorophenyl)-3-(3-methoxyphenyl)-2H-benzo[e][1,3]oxazine-2,4(3H)-dione] | > 20 | 105.53 ± 4.7 | 30.8 ± 5.77 | 1.95
10 | N#Cc1cccc(NC(=O)c2cc(-c3ccc(F)cc3F)ccc2O)c1 [compound 9, N-(3-cyanophenyl)-2′,4′-difluoro-4-hydroxy-[1,1′-biphenyl]-3-carboxamide] | 12.3 | 72.15 ± 0.36 | 71.3 ± 3.39 | > 10
11 | O=C(Nc1ccc(F)c(F)c1)c1cc(-c2ccc(F)cc2F)ccc1O [compound 3] | 14.6 | 78.42 ± 3.79 | 47.4 ± 5.58 | 0.79
12 | O=c1oc2ccc(-c3ccc(F)cc3F)cc2c(=O)n1-c1cccc(C(F)(F)F)c1 [compound 18, 6-(2,4-difluorophenyl)-3-(3-(trifluoromethyl)phenyl)-2H-benzo[e][1,3]oxazine-2,4(3H)-dione] | 13 | 100.13 ± 0.94 | 62.9 ± 2.65 | 0.55
13 | O=C(Nc1ccc(C(F)(F)F)cc1)c1cc(-c2ccc(F)cc2F)ccc1O [compound 7, 2′,4′-difluoro-4-hydroxy-N-(4-(trifluoromethyl)phenyl)-[1,1′-biphenyl]-3-carboxamide] | 10.4 | 85.22 ± 3.83 | 51.5 ± 6.25 | 0.64
14 | COc1ccc(-n2c(=O)oc3ccc(-c4ccc(F)cc4F)cc3c2=O)cc1OC [compound 23, 6-(2,4-difluorophenyl)-3-(3,4-dimethoxyphenyl)-2H-benzo[e][1,3]oxazine-2,4(3H)-dione] | > 20 | 103.05 ± 4.03 | 21.2 ± 2.49 | 0.47
15 | O=c1oc2ccc(-c3ccc(F)cc3F)cc2c(=O)n1-c1ccccc1C(F)(F)F [compound 17, 6-(2,4-difluorophenyl)-3-(2-(trifluoromethy)phenyl)-2H-benzo[e][1,3]oxazine-2,4(3H)-dione] | 15.1 | 95.53 ± 3.86 | 31.6 ± 4 | > 10
16 | O=c1oc2ccc(-c3ccc(F)cc3F)cc2c(=O)n1-c1ccc(Cl)cc1F [compound 13, 3-(4-chloro-2-fluorophenyl)-6-(2,4-difluorophenyl)-2H-benzo[e][1,3]oxazine-2,4(3H)-dione] | > 20 | 96.22 ± 0.53 | 19.4 ± 1.4 | 1.08
17 | N#Cc1cccc(-n2c(=O)oc3ccc(-c4ccc(F)cc4F)cc3c2=O)c1 [compound 21, 3-(6-(2,4-difluorophenyl)-2,4-dioxo-2H-benzo[e][1,3]oxazin-3(4H)-yl)benzonitrile] | 14.9 | 102.79 ± 1.93 | 34 ± 6.98 | > 10
18 | C#Cc1cccc(NC(=O)c2cc(-c3ccc(F)cc3F)ccc2O)c1 [compound 8, N-(3-ethynylphenyl)-2′,4′-difluoro-4-hydroxy-[1,1′-biphenyl]-3-carboxamide] | > 20 | 62.95 ± 0.85 | 40.6 ± 2.01 | 2.45
19 | O=c1oc2ccc(-c3ccc(F)cc3F)cc2c(=O)n1-c1ccc(F)c(F)c1 [compound 15] | 9.96 | 72.15 ± 0.43 | 17.4 ± 7.49 | 0.61
20 | N#Cc1ccc(NC(=O)c2cc(-c3ccc(F)cc3F)ccc2O)cc1 [compound 10, N-(4-cyanophenyl)-2′,4′-difluoro-4-hydroxy-[1,1′-biphenyl]-3-carboxamide] | 14.4 | 96.24 ± 2.29 | 13.9 ± 1.23 | > 10
21 | O=c1oc2ccc(-c3ccc(F)cc3F)cc2c(=O)n1-c1ccc(F)cc1F [compound 14, 3,6-bis(2,4-difluorophenyl)-2H-benzo[e][1,3]oxazine-2,4(3H)-dione] | 12.7 | 96.49 ± 1.86 | 42.3 ± 6.62 | 1.26
22 | O=C(Nc1ccccc1C(F)(F)F)c1cc(-c2ccc(F)cc2F)ccc1O [compound 5] | > 20 | 99.37 ± 3.71 | 42.8 ± 6.51 | > 10
23 | O=C(Nc1ccc(F)cc1F)c1cc(-c2ccc(F)cc2F)ccc1O [compound 2, N-(2,4-difluorophenyl)-2′,4′-difluoro-4-hydroxybiphenyl-3-carboxamide] | > 20 | 109.62 ± 3.37 | 32.2 ± 5.58 | 0.95
